Key:
Assay type in all cases: physicochemical
[1] = NBPT mixture storage at −20° C. for 4 weeks (crystal formation, flowability); details: solution free of crystal or flowable at −20° C.
Protocol: Recipe: 20 wt % NBPT/80 wt % Solvent
(§1) Each NBPT mixture is stored at three temperatures, room temperature (20-25° C.), 55° C., and −20° C. for 4 weeks to evaluate storage stability at elevated, ambient, and sub-ambient conditions. After 4 weeks of storage, the samples are visually inspected for (1) color, which is an indication of degradation, and (2) crystal formation, which is an indicator of insufficient solvency to carry 20 wt % NBPT.
(§2) NBPT is considered compatible with a solvent if the mixture remained clear, crystal free, and flowable at −20° C. for four weeks, and has little color (colorless or pale yellow) after four weeks at 55° C.

[2] = Compatibility of NBPT with solvent (storage study overall); details: clear, crystal free, flowable at −20° C. for four weeks and little color after four weeks at 55° C.; 20 wt % NBPT
Protocol: as §1, §2

[3] = Solvent vapor pressure at 20° C.; details: neat solvent
Protocol: • (1) a vapor pressure of less than or equal to (≤) 0.01 millimeters of mercury (mmHg) at 20° C. as measured by ASTM E1719, • (2) a flash point equal to or greater than (≥) 200° F. (93° C.) as measured by ASTM D3278, • (3) a viscosity less than or equal to (≤) 200 centipoise (cP) at 25° C. as measured by ASTM D445, • (4) a hydroxyl number from 100 to 1,000 as measured by ASTM D4274, and • (5) a VOC content less of than or equal to (≤) 50 weight percent (wt %) as measured by ASTM D6886.
In one embodiment, the fertilizer stabilizer compositions of this invention have a low vapor pressure, typically less than or equal to (≤) 0.01 millimeters of mercury (mmHg), or ≤0.001 mmHg, or ≤0.0001 mmHg, at 20° C. as measured by ASTM E1719.
Only two glycol ethers are identified as compatible with NBPT: methyl CARBITOL™ (as described in WO 2014/028767 A1 and WO 2008/000196 A1, an alkyl glycol ether not of Formula 1, and a comparative sample) and DOWANOL™ EPh6 (a mixture of glycol ethers comprising at least two structures of Formula 1, and an inventive sample). […]

| Structure (SMILES) | Solvency to carry 20 wt % NBPT [1] | Compatibility with NBPT [2] | Vapor pressure mmHg at 20° C. [3] [mmHg] | Vapor pressure mmHg at 20° C. ([3]; listed as methyl CARBITOL™) [mmHg] |
| --- | --- | --- | --- | --- |
| OCCOCCOc1ccccc1 [DOWANOL DiEPh] | not able to produce a NBPT mixture that provides sufficient solvency to carry 20 wt % NBPT | – | – | – |
| OCCOc1ccccc1 [DOWANOL EPh] | not able to produce a NBPT mixture that provides sufficient solvency to carry 20 wt % NBPT | – | – | – |
| CC(O)COc1ccccc1 (stereo not drawn) [DOWANOL PPh] | not able to produce a NBPT mixture that provides sufficient solvency to carry 20 wt % NBPT | – | – | – |
| COCCOCCO [Methyl CARBITOL] | – | compatible | 0.23 | > 0.1 |
